The values below come from ChEMBL document CHEMBL1155839, “Exploring 9-benzyl purines as inhibitors of glutamate racemase (MurI) in Gram-positive bacteria” (Bioorg Med Chem Lett, 2008).

Molecules are shown by their SMILES. In brackets after ≈: the same amount, converted by molar mass.

Series [1] relates to Enterococcus faecalis. Description: Antibacterial activity against Enterococcus faecalis. In kind it is functional.
The nature of series [2]: Solubility by nephelometry. It is filed as physicochemical.
The nature of series [3]: Inhibition of Enterococcus faecium MurI.
Series [4] has as its target T1, Glutamate racemase (Enterococcus faecalis (strain ATCC 700802 / V583), UniProt Q836J0).
T1 sequence (Q836J0 whole entry): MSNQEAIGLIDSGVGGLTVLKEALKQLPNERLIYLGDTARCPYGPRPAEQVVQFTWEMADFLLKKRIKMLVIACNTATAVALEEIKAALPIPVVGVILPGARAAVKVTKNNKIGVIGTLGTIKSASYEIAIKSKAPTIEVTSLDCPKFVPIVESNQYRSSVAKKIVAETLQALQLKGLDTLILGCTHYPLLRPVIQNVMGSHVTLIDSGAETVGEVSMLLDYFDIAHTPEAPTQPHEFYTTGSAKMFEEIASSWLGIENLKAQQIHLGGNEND
Description: Inhibition of Enterococcus faecalis MurI.

Series [5] in a line: Inhibition of Staphylococcus aureus MurI.
The subject of series [6] is Enterococcus faecium. Description: Antibacterial activity against Enterococcus faecium. It is filed as functional.
Series [7] deals with Staphylococcus aureus. Description: Antibacterial activity against Staphylococcus aureus. In kind it is functional.

For orientation: MIC means the smallest concentration in the dilution series that meets the test's criterion for growth inhibition. A high value points to a less susceptible organism. Broadly, the kinetic solubility is solubility judged after dilution from a stock solution rather than from solid. Broadly, the IC50 is the concentration that inhibits the measured activity by half. Lower therefore signals greater potency. In the case of `CCCCNc1nc(N)c2ncn(Cc3c(F)cccc3F)c2n1`, the minimal inhibitory concentration (MIC) in series [1], in series [6] and in series [7] was 16 µg/mL (≈ 48.1 µM) each time. In series [2], this molecule showed a solubility (kinetic) of 100 µM (≈ 33.2 µg/mL). The IC50 in series [3] is 42.5 µM; in series [4], 26.1 µM; in series [5], > 400 µM.
For the molecule `CCCCOc1nc(N)c2[nH]c(=O)n(Cc3c(F)cccc3F)c2n1`, the minimal inhibitory concentration (MIC) in series [1], in series [6] and in series [7] was 16 µg/mL (≈ 45.8 µM) each time. The molecule also registered a solubility (kinetic) in series [2] of 200 µM (≈ 69.9 µg/mL). Besides, the figures for the IC50 in series [3], in series [4] and in series [5] were 97.8 µM, 38.1 µM and > 400 µM, respectively.
With `CCCCSc1nc(N)c2ncn(Cc3c(F)cccc3F)c2n1`, the MIC in series [1], in series [6] and in series [7] was 16 µg/mL (≈ 45.8 µM) each time. Moreover, in series [2], the kinetic solubility came out at 50 µM (≈ 17.5 µg/mL). Further, the figures for the 50% inhibitory concentration (IC50) in series [3], in series [4] and in series [5] were 6 µM, 4.1 µM and > 400 µM, respectively.
Turning to `CCCCSc1nc(N)c2ncn(Cc3c(F)ccc(Cl)c3F)c2n1`, the MIC in series [1], in series [6] and in series [7] was 16 µg/mL (≈ 41.7 µM) each time. Moreover, the kinetic solubility in series [2] was determined as 25 µM (≈ 9.6 µg/mL). Besides, the 50% inhibitory concentration (IC50) is 2.6 µM in series [3], 2.2 µM in series [4] and > 400 µM in series [5].
In the case of `CCCCOc1nc(NCc2cccnc2)c2ncn(Cc3c(F)ccc(Cl)c3F)c2n1`, the MIC in series [1], in series [6] and in series [7] was 16 µg/mL (≈ 34.9 µM) throughout. Also, the kinetic solubility in series [2] came to 18 µM (≈ 8.26 µg/mL). Further, the half-inhibitory concentration (IC50) in series [3] is 2.7 µM; in series [4], 2 µM; in series [5], > 400 µM.
On to `CCCCSc1nc2c(ncn2Cc2c(F)ccc(C)c2F)c(=O)[nH]1`, for which the MIC in series [1], in series [6] and in series [7] was 16 µg/mL (≈ 43.9 µM) in each case. Besides, in series [2], the kinetic solubility was 100 µM (≈ 36.4 µg/mL). In addition, the values for the half-inhibitory concentration (IC50) in series [3], in series [4] and in series [5] were 3.75 µM, 11.5 µM and > 400 µM, respectively.
For the molecule `CCCCOc1nc(NCc2ccccc2)c2ncn(Cc3c(F)ccc(C)c3F)c2n1`, the MIC in series [1], in series [6] and in series [7] was 16 µg/mL (≈ 36.6 µM) in each case. The molecule further displayed a kinetic solubility in series [2] of 3.1 µM (≈ 1.36 µg/mL). The half-inhibitory concentration (IC50) in series [3], in series [4] and in series [5] was > 400 µM in each case.
Consider `CCC(Oc1nc(N)c2ncn(Cc3c(F)ccc(C)c3F)c2n1)C(F)(F)C(F)(F)F` (stereo not drawn), for which the minimum inhibitory concentration (MIC) in series [1], in series [6] and in series [7] was 16 µg/mL (≈ 35.4 µM) in each case. In series [2], the kinetic solubility is 25 µM (≈ 11.3 µg/mL). Further, the IC50 in series [3] is 4.4 µM; in series [4], 4.3 µM; in series [5] it was > 400 µM.
In the case of `CC(=O)NC(C)Oc1nc(N)c2ncn(Cc3c(F)ccc(C)c3F)c2n1` (stereo not drawn), the MIC in series [1], in series [6] and in series [7] was 16 µg/mL (≈ 42.5 µM) in each case. In addition, in series [2], the kinetic solubility stood at 100 µM (≈ 37.6 µg/mL). Besides, the IC50 is > 400 µM in series [3], 167 µM in series [4] and > 400 µM in series [5].
For the molecule `CCCCSc1nc(N)c2ncn(Cc3cccc([N+](=O)[O-])c3)c2n1`, the minimum inhibitory concentration (MIC) in series [1], in series [6] and in series [7] was 16 µg/mL (≈ 44.6 µM) each time. In series [2], this molecule registered a kinetic solubility of 42 µM (≈ 15.1 µg/mL). The IC50 was 17.7 µM in series [3], 9.4 µM in series [4] and > 400 µM in series [5].
As for `CCCCSc1nc(N)c2ncn(Cc3c(F)ccc(C)c3F)c2n1`, the MIC in series [1], in series [6] and in series [7] was 16 µg/mL (≈ 44 µM) in each case. The solubility (kinetic) in series [2] amounted to 25 µM (≈ 9.09 µg/mL). The 50% inhibitory concentration (IC50) in series [3] is 6.5 µM; in series [4], 5.4 µM; in series [5] it was > 400 µM.
Consider `CCCCSc1ncc2ncn(Cc3c(F)ccc(Cl)c3F)c2n1`, for which the minimum inhibitory concentration (MIC) in series [1], in series [6] and in series [7] was 16 µg/mL (≈ 43.4 µM) in each case. The solubility (kinetic) in series [2] was 50 µM (≈ 18.4 µg/mL). For the same molecule, the values for the concentration for half-maximal inhibition (IC50) in series [3], in series [4] and in series [5] were 1.8 µM, 1 µM and > 400 µM, respectively.
As to `CCCCSc1nc(N)c2ncn(Cc3cc([N+](=O)[O-])ccc3OC)c2n1`, the MIC in series [1], in series [6] and in series [7] was 16 µg/mL (≈ 41.2 µM) in each case. This molecule also showed a solubility (kinetic) in series [2] of 25 µM (≈ 9.71 µg/mL). Also, the IC50 in series [3] was 2.5 µM; in series [4] it was 1.4 µM; in series [5], > 400 µM.
Turning to `CCCCOc1nc(NC)c2ncn(Cc3c(F)cccc3F)c2n1`, the minimum inhibitory concentration (MIC) in series [1], in series [6] and in series [7] was 16 µg/mL (≈ 46.1 µM) in each case. In series [2], this molecule came in with a solubility (kinetic) of 100 µM (≈ 34.7 µg/mL). Moreover, the results for the IC50 in series [3], in series [4] and in series [5] were 13.9 µM, 5.5 µM and > 400 µM, respectively.
On to `CCCCOc1nc(NCCN2CCOCC2)c2ncn(Cc3c(F)cccc3F)c2n1`, for which the MIC in series [1], in series [6] and in series [7] was 16 µg/mL (≈ 35.8 µM) throughout. Moreover, in series [2], the kinetic solubility came to 200 µM (≈ 89.3 µg/mL). Moreover, the values for the half-maximal inhibitory concentration (IC50) in series [3] and in series [5] were 5.5 µM and > 400 µM, respectively.
Consider `CCCCOc1nc(N)c2ncn(Cc3c(F)ccc(C)c3F)c2n1`, for which the minimum inhibitory concentration (MIC) in series [1], in series [6] and in series [7] was 16 µg/mL (≈ 46.1 µM) in each case. In series [2], the kinetic solubility was determined as 50 µM (≈ 17.4 µg/mL). Moreover, the values for the half-inhibitory concentration (IC50) in series [3], in series [4] and in series [5] were 27 µM, 9.8 µM and > 400 µM, respectively.
For `CCCCSc1nc(N)c2nnn(Cc3c(F)cccc3F)c2n1`, the MIC in series [1], in series [6] and in series [7] was 16 µg/mL (≈ 45.7 µM) each time. The molecule also returned a solubility (kinetic) in series [2] of 50 µM (≈ 17.5 µg/mL). Also, the results for the IC50 in series [3], in series [4] and in series [5] were 6.2 µM, 4.3 µM and > 400 µM, respectively.
